{
  "source": "patent US4436732A",
  "about": "“Medicated compound for treating diseases infected by virus of the herpes group” (priority 1981, dated 1984)",
  "origin": "cited, not measured here",
  "conditions": "known preparations, background; cited from earlier work",
  "data": [
    {"smiles": "O=c1[nH]cc(F)c(=O)[nH]1", "note": "[5-fluorouracyl]", "values": [
      {"measurement": "toxicity", "value": "rather toxic"}
    ]}
  ]
}
